Molecules are shown by their SMILES. pIC50: −log10 of the molar value. Active and inactive are the calls of the source. The rule behind the calls is not given here.

A word on the pIC50: it is the IC50 on a negative log10 scale, so that one unit is a factor of ten.

The nature of series [1]: Solubility of compound in water. Format: physicochemical. Particulars: buffer.
The subject of series [2] is A549. Kind of series: Cytotoxicity against human A549 cells assessed as reduction in cell viability after 72 hrs by MTT assay. Format: functional, cell-based. Particulars: A549, 72 h. On the technique in general: Tetrazolium assays rely on reduction of a dye to a coloured formazan, in cell work by metabolically active cells.
Series [3] deals with A549. Put plainly: Induction of apoptosis in human A549 cells assessed as increase in apoptotic cells up to 40 uM incubated for 24 hrs by Annexin V-FITC/propidium iodide staining based flow cytometry. Format: functional, cell-based.
The test system of series [4] is A549. Put plainly: Induction of apoptosis in human A549 cells assessed as increase in PARP cleavage at 80 uM after 24 hrs by Western blot analysis. Format: functional, cell-based. On the technique in general: Immunoblotting shows a protein as a band on a membrane.
Series [5] has as its system A549. Kind of series: Induction of apoptosis in human A549 cells assessed as cell death up to 40 uM after 24 hrs by Annexin V-FITC/propidium iodide staining based flow cytometry. Format: functional.
The test system of series [6] is A549. Put plainly: Induction of apoptosis in human A549 cells assessed as increase in apoptotic cells at 80 uM incubated for 24 hrs by Annexin V-FITC/propidium iodide staining based flow cytometry. Format: functional, cell-based. (In general: A flow cytometer gives signals particle by particle.)
The test system of series [7] is A549. Kind of series: Induction of apoptosis in human A549 cells assessed as necrotic cells up to 80 uM incubated for 24 hrs by Annexin V-FITC/propidium iodide staining based flow cytometry. Format: functional, cell-based.
The subject of series [8] is A549. Kind of series: Induction of apoptosis in human A549 cells assessed as caspase-3 p17/19 active fragment generation at 80 uM after 24 hrs by Western blot analysis. Format: functional, cell-based.
Series [9] concerns A549. Put plainly: Cytotoxicity against human A549 cells at 1.56 to 100 uM after 72 hrs by MTT assay. Format: functional, cell-based.
Series [10] addresses Tumour suppressor p53/oncoprotein Mdm2 (Homo sapiens) (UniProt P04637+Q00987). Kind of series: Inhibition of MDM2/P53 interaction in human A549 cells assessed as increase in p53 level at 10 to 20 uM after 24 hrs by Western blot analysis. Format: cell-based.
Series [11] relates to A549. Put plainly: Induction of apoptosis in human A549 cells assessed as increase in PARP cleavage at 40 uM after 24 hrs by Western blot analysis. Format: functional, cell-based.
For series [12], the system named is A549. Put plainly: Induction of apoptosis in human A549 cells assessed as increase in necrotic cells at 40 to 80 uM incubated for 24 hrs by Annexin V-FITC/propidium iodide staining based flow cytometry relative to control. Format: functional.
For series [13], the system named is A549. Kind of series: Induction of apoptosis in human A549 cells assessed as caspase-3 p17/19 active fragment generation at 40 uM after 24 hrs by Western blot analysis. Format: functional, cell-based.
The subject of series [14] is A549. Put plainly: Induction of necrosis in human A549 cells at >20 uM after 24 hrs by Annexin V-FITC/propidium iodide staining based flow cytometry. Format: functional, cell-based.
Series [15] has as its system A549. Put plainly: Induction of apoptosis in human A549 cells assessed as cell death at 80 uM after 24 hrs by Annexin V-FITC/propidium iodide staining based flow cytometry. Format: functional.

Sequence of Tumour suppressor p53/oncoprotein Mdm2 (Homo sapiens) (P04637 whole entry, looked up): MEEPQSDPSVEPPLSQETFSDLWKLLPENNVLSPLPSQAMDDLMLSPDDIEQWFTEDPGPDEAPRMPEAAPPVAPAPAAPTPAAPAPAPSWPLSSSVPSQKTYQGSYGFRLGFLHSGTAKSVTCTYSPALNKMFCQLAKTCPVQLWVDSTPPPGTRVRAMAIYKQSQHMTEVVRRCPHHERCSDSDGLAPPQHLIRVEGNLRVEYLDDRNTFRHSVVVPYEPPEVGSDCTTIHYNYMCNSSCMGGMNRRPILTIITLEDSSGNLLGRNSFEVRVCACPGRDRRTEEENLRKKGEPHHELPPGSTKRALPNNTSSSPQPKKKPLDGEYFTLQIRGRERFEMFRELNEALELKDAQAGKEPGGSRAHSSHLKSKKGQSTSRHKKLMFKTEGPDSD
Sequence of Tumour suppressor p53/oncoprotein Mdm2 (Homo sapiens) (Q00987 whole entry, looked up): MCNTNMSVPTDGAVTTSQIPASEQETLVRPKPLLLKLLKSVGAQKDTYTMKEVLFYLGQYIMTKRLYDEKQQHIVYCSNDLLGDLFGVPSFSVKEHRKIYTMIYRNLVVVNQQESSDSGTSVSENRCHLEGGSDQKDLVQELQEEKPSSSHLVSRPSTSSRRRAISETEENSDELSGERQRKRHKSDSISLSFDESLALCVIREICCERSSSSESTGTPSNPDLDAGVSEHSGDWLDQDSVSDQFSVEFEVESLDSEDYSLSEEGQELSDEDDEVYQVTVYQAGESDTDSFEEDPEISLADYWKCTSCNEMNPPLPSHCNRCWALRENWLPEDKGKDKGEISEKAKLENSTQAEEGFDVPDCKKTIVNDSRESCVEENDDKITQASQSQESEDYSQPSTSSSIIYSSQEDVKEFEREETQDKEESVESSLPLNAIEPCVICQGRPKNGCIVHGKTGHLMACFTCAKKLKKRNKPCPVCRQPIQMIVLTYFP

On to `Brc1ccc(C2=N[C@H](c3ccc(Br)cc3)[C@H](c3ccc(Br)cc3)N2)cc1`, for which, in [1], the solubility entry is “Insoluble”. The pIC50 in the series with A549 [2] is 5.04.
On to `COc1ccc(C2=N[C@H](c3ccc(OC)cc3)[C@H](c3ccc(OC)cc3)N2)cc1`, for which the result in the series on A549 [3], in the series on A549 [4], in the series on A549 [5], with A549 [7] and with A549 [8] was inactive. In the series on A549 [2], the pIC50 was 4.36. For the same compound, in the series on A549 [6], the result was Active.
On to `COc1ccc(C2=N[C@H](c3ccc(OC)cc3OC)[C@H](c3ccc(OC)cc3OC)N2)c(OC)c1`, for which the outcome in the series with A549 [3], in the series on A549 [4], in the series on A549 [5], with A549 [7] and in the series on A549 [8] was inactive. In addition, the pIC50 in the series with A549 [2] was 5.03. The result with A549 [6] was Active.
In the case of `Fc1ccc(C2=N[C@H](c3ccc(F)cc3)[C@H](c3ccc(F)cc3)N2)cc1`, the pIC50 in the series with A549 [2] was 3.97.
As for `Clc1ccc(C2=N[C@H](c3ccc(Cl)cc3Cl)[C@H](c3ccc(Cl)cc3Cl)N2)c(Cl)c1`, in the series on A549 [2], the pIC50 is 3.78.
Consider `COc1ccc(C2=N[C@H](c3ccc(O)cc3)[C@H](c3ccc(O)cc3)N2)cc1`, for which the result in the series with A549 [9] was inactive.
As to `Clc1ccccc1C1=N[C@H](c2ccccc2Cl)[C@H](c2ccccc2Cl)N1`, in series [1], the solubility entry was “Insoluble”. In addition, the pIC50 with A549 [2] was 4.97.
Consider `COc1ccc(OC)c(C2=N[C@H](c3cc(OC)ccc3OC)[C@H](c3cc(OC)ccc3OC)N2)c1`, for which, in the series on A549 [2], the pIC50 is 4.67. The inhibition result in series [10] is “inactive”.
`Clc1ccc(C2=N[C@H](c3ccc(Cl)cc3)[C@H](c3ccc(Cl)cc3)N2)cc1`: the negative-log IC50 (pIC50) in the series with A549 [2] was 4.69. Further, the outcome with A549 [11], in the series with A549 [7], in the series with A549 [13], in the series on A549 [14] and in the series with A549 [15] was Active. Also, the Activity entry with A549 [12] was “<=70%”.
Turning to `CCOc1ccc(C2=N[C@H](c3ccc(OCC)cc3)[C@H](c3ccc(OCC)cc3)N2)cc1`, the negative logarithm of the IC50 (pIC50) in the series with A549 [2] was 4.88. For the same compound, the outcome in the series with A549 [11], in the series on A549 [7], in the series with A549 [13], in the series on A549 [14] and with A549 [15] was Active. Also, in the series on A549 [12], the Activity entry is on record as “<=70%”.
For `COc1ccccc1C1=N[C@H](c2ccccc2OC)[C@H](c2ccccc2OC)N1`, in the series with A549 [2], the pIC50 is 4.56.
The same measure, in the same setting: in the case of `COc1cccc(C2=N[C@H](c3cccc(OC)c3)[C@H](c3cccc(OC)c3)N2)c1` it was 4.19; in that of `CCOc1ccc(C2=N[C@H](c3ccc(OCC)c(OC)c3)[C@H](c3ccc(OCC)c(OC)c3)N2)cc1OC`, 4.17.
Take `Oc1ccc(O)c(C2=N[C@H](c3cc(O)ccc3O)[C@H](c3cc(O)ccc3O)N2)c1`: the outcome in the series with A549 [9] was inactive.
On to `CCOc1c(OC)cccc1C1=N[C@H](c2cccc(OC)c2OCC)[C@H](c2cccc(OC)c2OCC)N1`, for which the negative-log IC50 (pIC50) in the series with A549 [2] was 4.62.
On to `COc1ccc(C2=N[C@H](c3ccc(OC)c(OC)c3)[C@H](c3ccc(OC)c(OC)c3)N2)cc1OC`, for which the pIC50 with A549 [2] was 4.07.
Take `COc1cc(C2=N[C@H](c3cc(OC)c(OC)c(OC)c3)[C@H](c3cc(OC)c(OC)c(OC)c3)N2)cc(OC)c1OC`: the result in the series with A549 [9] was inactive.
Regarding `Clc1ccc(C2=N[C@H](c3ccc(Cl)c(Cl)c3)[C@H](c3ccc(Cl)c(Cl)c3)N2)cc1Cl`, in the series on A549 [2], the pIC50 was 4.86.
Same read-out and setting: in the case of `Oc1ccccc1C1=N[C@H](c2ccccc2O)[C@H](c2ccccc2O)N1` it was 3.51.
Turning to `Oc1ccc(C2=N[C@H](c3ccc(O)cc3)[C@H](c3ccc(O)cc3)N2)cc1`, the result in the series on A549 [9] was inactive.
Turning to `COc1cccc(C2=N[C@H](c3cccc(OC)c3OC)[C@H](c3cccc(OC)c3OC)N2)c1OC`, in the series with A549 [2], the pIC50 is 4.79. Moreover, the inhibition result in [10] was “inactive”.
